Assays:
human CYP11B1 = target: T1, human CYP11B1 (Homo sapiens, UniProt P15538); experiment: V79-Human-CYP11B1 cell assay (cortisol HTRF); assay type: cell-based; conditions: V79-hCYP11B1 cells, 250 nM 11-deoxycortisol, 3 hours
T1 construct: expressed in transfected cells; host or cells: V79MZh11B1 cells
T1 sequence (P15538 25-503): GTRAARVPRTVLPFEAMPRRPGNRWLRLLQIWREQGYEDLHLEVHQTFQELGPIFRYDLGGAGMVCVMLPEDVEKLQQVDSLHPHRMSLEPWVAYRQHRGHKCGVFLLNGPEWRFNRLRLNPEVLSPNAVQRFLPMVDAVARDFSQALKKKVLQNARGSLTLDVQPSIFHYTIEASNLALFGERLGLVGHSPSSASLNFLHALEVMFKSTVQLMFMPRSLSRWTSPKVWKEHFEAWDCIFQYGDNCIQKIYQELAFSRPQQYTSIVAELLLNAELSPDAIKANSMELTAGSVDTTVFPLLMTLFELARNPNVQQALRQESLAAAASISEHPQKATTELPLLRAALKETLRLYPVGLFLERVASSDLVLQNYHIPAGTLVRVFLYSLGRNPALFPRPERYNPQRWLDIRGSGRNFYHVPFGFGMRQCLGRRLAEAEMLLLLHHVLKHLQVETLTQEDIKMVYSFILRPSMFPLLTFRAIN
Experimental: Methods for V79-Human-CYP11B2 and V79-Human-CYP11B1 Assays: V79 cell lines stably expressing the either the human CYP11B2 or the human CYP11B1 enzyme were generated using a standard transfection protocol. V79 cells were transfected with plasmids pTriEx3-Hygro-hCyp11B2 or pTriEx3-Hygro-hCyp11B1 using Lipofectamine2000 reagent. […] Single cell clones were generated by infinite dilution in DMEM supplemented with 10% FBS and 400 μg/mL hygromycin until single colonies were obtained. […] For testing of inhibitors, cells were harvested at 80% confluency with 0.5% Trypsan-EDTA, washed once in PBS, and reconstituted in DMEM+0.1% BSA media at a cell concentration of 400,000 cells/mL. 25 μl of cells were added to a 384 well tissue culture treated plate and mixed with 0.25 μl of inhibitor or DMSO (1% final DMSO concentration) for 1 hour at 37° C., 5% CO2. […] The reaction was carried out for 3 hours at 37° C., 5% CO2 and was stopped by harvesting the supernatants. […] IC50's for the inhibitor were determined by plotting the amount of product formed against the concentration of inhibitor using sigmoidal dose-response curve (variable slope) fit in GraphPad.

human CYP11B2 = target: T2, human CYP11B2 (Homo sapiens, UniProt P19099); experiment: V79-Human-CYP11B2 cell assay (aldosterone HTRF); assay type: cell-based; conditions: V79-hCYP11B2 cells, 125 nM 11-deoxycorticosterone, 3 hours
T2 construct: expressed in transfected cells; host or cells: V79 cells (clone V79-hCYP11B2-CLE9)
T2 sequence (P19099 25-503): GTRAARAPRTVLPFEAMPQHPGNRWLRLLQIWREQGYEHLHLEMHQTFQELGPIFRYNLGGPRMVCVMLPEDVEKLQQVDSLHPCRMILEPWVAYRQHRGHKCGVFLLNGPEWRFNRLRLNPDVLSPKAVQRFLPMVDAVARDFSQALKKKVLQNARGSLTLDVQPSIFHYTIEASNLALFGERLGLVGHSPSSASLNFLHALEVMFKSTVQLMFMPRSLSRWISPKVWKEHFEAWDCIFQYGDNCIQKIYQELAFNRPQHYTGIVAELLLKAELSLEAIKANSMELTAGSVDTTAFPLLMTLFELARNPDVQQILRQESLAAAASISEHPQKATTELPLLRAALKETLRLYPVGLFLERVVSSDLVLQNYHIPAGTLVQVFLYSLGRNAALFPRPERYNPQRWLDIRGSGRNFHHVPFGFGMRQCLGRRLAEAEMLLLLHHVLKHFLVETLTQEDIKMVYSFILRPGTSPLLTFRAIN
Experimental: Methods for V79-Human-CYP11B2 and V79-Human-CYP11B1 Assays:
V79 cell lines stably expressing the either the human CYP11B2 or the human CYP11B1 enzyme were generated using a standard transfection protocol. V79 cells were transfected with plasmids pTriEx3-Hygro-hCyp11B2 or pTriEx3-Hygro-hCyp11B1 using Lipofectamine2000 reagent. V79 cells that stably express the human CYP11B2 or human CYP11B1 enzyme were selected for and maintained in DMEM supplemented with 10% FBS and 400 μg/mL hygromycin for ˜2 weeks. Single cell clones were generated by infinite dilution in DMEM supplemented with 10% FBS and 400 μg/mL hygromycin until single colonies were obtained. Clones V79-hCYP11B2-CLE9 and V79-hCYP11B1-8C7, were determined to produce the most aldosterone and cortisol, respectively, and were selected for inhibitor screening. […] The amount of product in the supernatant (aldosterone for CYP11B2 assay and cortisol for the CYP11B1 assay) was measured using HTRF-based assay kit (Aldosterone HTRF-CisBio#64ALDPEB, Cortisol HTRF-CisBio #631DC002-CORT). IC50's for the inhibitor were determined by plotting the amount of product formed against the concentration of inhibitor using sigmoidal dose-response curve (variable slope) fit in GraphPad.

IC50 (human CYP11B1) | IC50 (human CYP11B2) | Structure (SMILES)
1500 nM |  | Cc1c(F)cncc1-c1cc(F)c2c(c1)CCc1nncn1-2 [Example 17, 9-fluoro-7-(5-fluoro-4-methylpyridin-3-yl)-4,5-dihydro-[1,2,4]triazolo[4,3a] quinoline]
69 nM |  | Cc1c(-c2cc(Cl)c3c(c2)CCc2nnc(C)n2-3)cncc1C(C)(O)C(F)(F)F (centres unmarked) [Example 37, 1-(5-(9-chloro-1-methyl-4,5-dihydro-[1,2,4]triazolo[4,3-a]quinolin-7-yl)-4-methylpyridin-3-yl)-1,1,1-trifluoropropan-2-ol]
527 nM |  | Cc1c(-c2cc(Cl)c3c(c2)CCc2nnc(C)n2-3)cncc1C(C)(O)C(F)(F)F (centres unmarked) [Example 38, 1-(5-(9-chloro-1-methyl-4,5-dihydro-[1,2,4]triazolo[4,3-a]quinolin-7-yl)-4-methylpyridin-3-yl)-1,1,1-trifluoropropan-2-ol]
157 nM | 17 nM | COC(=O)C1(c2cncc(-c3ccc4c(c3)CCc3nncn3-4)c2)CC1 [Step D, p 76, methyl 1-[5-(4,5-dihydro[1,2,4]triazolo[4,3-a]quinolin-7-yl)-3-pyridinyl]cyclopropanecarboxylate]

From patent US9073929B2, “Aldosterone synthase inhibitors” (ElexoPharm GmbH, priority 2011, dated 2015)
